What was measured:
FAAH = target: T1, FAAH (Mus musculus, UniProt O08914); assay: Escalating oral dose study in mice, brain FAAH activity; assay type: in vivo
T1 construct: brain FAAH Activity was also evaluated in an escalating oral dose study in mice; from tissue; host or cells: mouse brain
T1 sequence (O08914 1-579): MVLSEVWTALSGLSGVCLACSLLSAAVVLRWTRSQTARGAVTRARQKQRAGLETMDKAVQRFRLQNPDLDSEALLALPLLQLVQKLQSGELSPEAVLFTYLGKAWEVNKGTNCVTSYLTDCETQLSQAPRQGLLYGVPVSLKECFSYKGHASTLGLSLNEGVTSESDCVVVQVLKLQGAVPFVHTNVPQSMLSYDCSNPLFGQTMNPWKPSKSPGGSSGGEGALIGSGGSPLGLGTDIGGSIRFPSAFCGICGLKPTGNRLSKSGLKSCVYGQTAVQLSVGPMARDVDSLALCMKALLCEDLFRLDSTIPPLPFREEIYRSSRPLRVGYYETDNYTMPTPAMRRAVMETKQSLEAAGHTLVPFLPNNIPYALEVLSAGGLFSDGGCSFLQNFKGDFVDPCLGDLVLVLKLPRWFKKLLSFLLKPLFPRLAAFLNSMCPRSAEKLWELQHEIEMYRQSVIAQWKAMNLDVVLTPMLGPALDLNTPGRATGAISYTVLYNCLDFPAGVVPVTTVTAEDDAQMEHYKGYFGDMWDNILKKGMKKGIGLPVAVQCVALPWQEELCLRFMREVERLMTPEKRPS
Procedure: Finally, the correlation between increases in plasma OEA levels and brain FAAH Activity was also evaluated in an escalating oral dose study in mice. Inhibition of FAAH activity was maximal at 50 mg/kg p.o. and partial 10 mg/kg p.o. (FIG. 12). Increases in plasma OEA levels directly correlated with brain FAAH inhibition (FIG. 13).

[1] = test system: OEA and PEA levels in plasma; assay: 28-day toxicokinetic (TK) study in rodents, plasma OEA and PEA levels; assay type: in vivo, rat; conditions: rodent TK study, 50, 275 and 1500 mg/kg
From the text: We carried out toxicokinetic (TK) studies in rodents. […] AEA was included in this assay to examine whether basal or elevated levels of AEA could be detected.

plasma OEA levels = assay: Time course of plasma OEA levels after oral administration to cynomolgus monkeys; assay type: in vivo
Procedure: Afterwards, a time course of plasma OEA levels was determined for each subject by obtaining a plasma sample at 0.5, 1, 2, 4, 8, 12, and 24 hours post-administration.

OEA plasma levels = assay: Plasma/serum OEA and PEA levels by LC-MS/MS after oral administration in rats; assay type: in vivo; conditions: rat, 30 mg/kg p.o. vs 10 mg/kg p.o.
Procedure: At 0, 1, 2, 4, 8, 12, and 24 hours post-administration, animals were sacrificed to collect serum and brain tissue samples. For each time point, FAAH activity was determined in brain tissue homogenates by essentially the same method as that described in Fegley et al. (2005), J. Pharm. and Exp. Ther., 313:352-358. We observed complete FAAH inhibition at 10 mg/kg and partial FAAH inhibition at 1 mg/kg (FIG. 1).
Serum OEA and PEA levels were determined by LC-MS/MS. As shown in FIGS. 2 (A-B), plasma levels of both OEA and PEA were highly correlated with FAAH inhibition in the brain (R^2=0.9459 and 0.929, respectively). In addition, changes in OEA plasma levels correlated with changes in anandamide (AEA) levels in the brain (FIG. 3; R^2=0.9363), and changes in AEA brain levels correlated with brain FAAH inhibition (FIG. 4; R^2=0.9996). […] AUCs were determined as the sum of the area under the plasma concentration curve of the analyte measured (minus the endogenous level), or as a % FAAH inhibition versus time curve from time zero to the last time point collected by the trapezoidal rule.

NC(=O)c1cccc(-c2cccc(OC(=O)NC3CCCCC3)c2)c1 [KDS-4103]
Inhibition of FAAH activity in brain (FAAH; 10 mg/kg p.o.): partial
Inhibition of FAAH activity in brain (FAAH; 50 mg/kg p.o.): maximal
FAAH inhibition inferred from OEA and PEA increases [1]: complete across all doses
Increases in OEA and PEA levels across the dose range [1]: similar
inhibition of FAAH activity in primates, concluded from plasma OEA (plasma OEA levels; 50-1500 mg/kg): highly effective
time of peak plasma OEA levels (plasma OEA levels; each dose of 50-1500 mg/kg): four
plasma OEA levels after the peak (plasma OEA levels; each dose of 50-1500 mg/kg, up to 24 hours): remained elevated at all subsequent time points examined
plasma levels of OEA at 30 mg/kg compared with 10 mg/kg (OEA plasma levels): did not increase plasma levels of OEA above those observed at 10 mg/kg

Reference: patent US20080089845A1, “METHODS FOR DETERMINING EFFECTIVE DOSES OF FATTY ACID AMIDE HYDROLASE INHIBITORS IN VIVO” (N.V. Organon, priority 2006, published 2008)
